According to patent US20210179578A1, “OX1 ANTAGONISTS” (Heptares Therapeutics Limited, priority 2017, published 2021):
pKd: −log10 of the molar value.

Key:
human OX1 receptor = biological target: T1, human OX1 receptor (Homo sapiens, UniProt O43613); assay: [3H]-radioligand binding assay, OX1; design: made in house; host or cells: SF21 insect cells (baculovirus; P0 virus made in SF9); conditions: for Ki: [3H]-radioligand binding, human OX1 membranes, read-out: pKi average OX1 (converted)
T1 sequence (O43613 1-425): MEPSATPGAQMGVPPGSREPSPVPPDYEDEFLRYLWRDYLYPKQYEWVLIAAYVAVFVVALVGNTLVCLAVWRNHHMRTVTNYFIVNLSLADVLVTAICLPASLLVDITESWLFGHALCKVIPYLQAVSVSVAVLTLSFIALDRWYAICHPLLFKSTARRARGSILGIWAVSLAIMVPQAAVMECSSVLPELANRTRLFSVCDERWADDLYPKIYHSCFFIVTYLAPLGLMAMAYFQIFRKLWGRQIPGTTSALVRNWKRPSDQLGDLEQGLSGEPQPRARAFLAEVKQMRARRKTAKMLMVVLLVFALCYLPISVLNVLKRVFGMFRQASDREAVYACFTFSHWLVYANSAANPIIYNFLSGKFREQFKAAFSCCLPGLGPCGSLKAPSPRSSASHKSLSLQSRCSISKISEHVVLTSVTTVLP
Excerpt: (§1) Cloning, Baculovirus generation, large-scale infection of SF21 cells and membrane preparation. Human OX1 or OX2 receptor were cloned into Invitrogen's (ThermoFisher Scientific, UK) Bac-to-Bac Baculovirus Expression System. P0 baculovirus was generated by transfecting SF9 cells with bacmid DNA using Cellfectin® II transfection reagent (ThermoFisher Scientific, UK, Catalog number 10362-100). Following P0 generation P1 virus was then generated ready for large scale infection and membrane preparation. SF21 cells were grown in expression medium ESF921 (Expression Systems, USA, catalog number 96-001-01) supplemented with 10% heat-inactivated FBS and 1% Pen/Strep and were infected at a cell density of 2.5×10^6 cells/mL and a multiplicity of infection of 1.0 for both human OX1R and OX2R. Incubation was carried out at over 48 h in a shaking incubator set at 27° C. The cell culture was then centrifuged at 2,500 rcf for 10 min at 4° C. The pellets were resuspended in cold PBS supplemented with Roche's Complete EDTA-free protease inhibitor cocktail tablets (Roche Applied Sciences, catalog number 05056489001), 1 mM PMSF and 1 mM EDTA. The resuspended cell paste was then centrifuged at 3,273 rcf for 12 min at 4° C. The supernatant was discarded and the pellet frozen at −80° C. The cell pellet from a 4 L culture was resuspended in buffer containing 50 mM HEPES pH 7.5, 150 mM NaCl, 8 Roche EDTA-Free protease inhibitor cocktail tablets and 1 mM PMSF. The suspension was left stirring at rt for 1 h and then homogenised for 90 s at 9,500 rpm using a VDI 25 (VWR, USA) homogeniser. The cells were then lysed using a Microfluidiser processor M-110L Pneumatic (Microfluidics, USA) at 60 PSI and membranes collected by ultracentrifugation at 204.7 k×g for 1 h. The supernatant was discarded and the pellet was resuspended and homogenised in 90 s at 9,500 rpm in 50 mL (25 mL for each 2 L culture) of buffer containing 50 mM Hepes pH 7.5, 150 mM NaCl, 3 Roche EDTA-free protease inhibitor cocktail tablets and 1 mM PMSF. The resulting membranes were then stored at −80° C.
(§2) [^3H]-radioligand binding assay. After thawing, membrane homogenates were resuspended in the binding buffer (8.5 mM HEPES, pH 7.4, 1.3 mM CaCl2, 1.2 mM MgSO4, 118 mM NaCl, 4.7 mM KCl, 4 mM NaHCO3, 1.2 mM KH2PO4, 11 mM glucose) to a final assay concentration of 6.4 μg (OX1) or 1.4 μg (OX2) protein per well. Saturation isotherms were determined by the addition of various concentrations (0-30 nM) of [^3H]-4-(2,6-difluoro-4-methoxybenzyl)-2-(5,6-dimethoxypyridin-3-yl)-2H-1,2,4-benzothiadiazin-3(4H)-one 1,1-dioxide (Christopher et al, MedChemComm., 2015, 6, 947-955) in a total reaction volume of 250 μL for 90 min at rt. At the end of the incubation, membranes were filtered onto a 96-well GF/B filter pre-incubated with 0.5% polyethylenimine, with a Tomtec cell harvester and washed 5 times with 0.5 mL distilled water. Non-specific binding (NSB) was measured in the presence of 3.33 μM [4-(5-chloro-1,3-benzoxazol-2-yl)-7-methyl-1,4-diazepan-1-yl][5-methyl-2-(2H-1,2,3-triazol-2-yl)phenyl]methanone (Wertz et al, Angew. Chem. Int. Ed., 2011, 50, 11511-11515). Radioactivity on the filter was counted (1 min) on a Microbeta radiometric plate counter (Perkin Elmer) after addition of 50 μL of scintillation fluid (LabLogic: Part #SG-BXX-14). […] IC50 values were derived from the inhibition curve and the equilibrium dissociation constant (Ki) values were calculated using the Cheng-Prusoff equation.

human OX2 receptor = biological target: T2, human OX2 receptor (Homo sapiens, UniProt O43614); assay: [3H]-radioligand binding assay, OX2; design: made in house; host or cells: SF21 insect cells (baculovirus; P0 virus made in SF9); conditions: for Ki: [3H]-radioligand binding, human OX2 membranes, read-out: pKi average OX2 (converted)
T2 sequence (O43614 1-444): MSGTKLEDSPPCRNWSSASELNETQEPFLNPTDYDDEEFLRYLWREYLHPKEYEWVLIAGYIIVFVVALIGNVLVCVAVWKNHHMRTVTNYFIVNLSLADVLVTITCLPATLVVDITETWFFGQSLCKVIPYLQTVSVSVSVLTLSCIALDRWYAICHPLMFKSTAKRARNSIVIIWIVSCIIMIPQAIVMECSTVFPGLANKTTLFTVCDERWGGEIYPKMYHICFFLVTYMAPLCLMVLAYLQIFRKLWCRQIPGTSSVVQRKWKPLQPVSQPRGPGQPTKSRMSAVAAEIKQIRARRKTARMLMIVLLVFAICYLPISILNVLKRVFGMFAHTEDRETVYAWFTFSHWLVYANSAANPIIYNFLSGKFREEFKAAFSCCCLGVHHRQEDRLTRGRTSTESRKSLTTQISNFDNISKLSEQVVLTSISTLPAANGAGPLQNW
Excerpt: as §1, §2

SMILES	Ki (human OX1 receptor) [nM]	Ki (human OX2 receptor) [nM]	pKd (human OX1 receptor; OX1 receptor membranes, saturation isotherms)	pKd (human OX2 receptor; OX2 receptor membranes, saturation isotherms)
COc1ncc(C2CCc3c(F)cccc3N(Cc3c(F)cc(Br)cc3F)C2=O)cc1S(C)(=O)=O (single isomer, unassigned) [Example 20, 1-(4-bromo-2,6-difluorobenzyl)-6-fluoro-3-[6-methoxy-5-(methylsulfonyl)pyridin-3-yl]-1,3,4,5-tetrahydro-2H-1-benzazepin-2-one]	200	> 631	–	–
COc1ncc(C2CCc3c(F)cccc3N(Cc3c(F)cc(Br)cc3F)C2=O)cc1C(C)(F)F (single isomer, unassigned) [Example 11, 1-(4-bromo-2,6-difluorobenzyl)-3-[5-(1,1-difluoroethyl)-6-methoxypyridin-3-yl]-6-fluoro-1,3,4,5-tetrahydro-2H-1-benzazepin-2-one]	1.58	> 126	–	–
Cc1ncc(C2CCc3c(F)cccc3N(Cc3cc(C#N)ccc3F)C2=O)cc1C(C)(F)F (single isomer, unassigned) [Example 41, 3-({3-[5-(1,1-difluoroethyl)-6-methylpyridin-3-yl]-6-fluoro-2-oxo-2,3,4,5-tetrahydro-1H-1-benzazepin-1-yl}methyl)-4-fluorobenzonitrile]	1.26	> 501	–	–

Other lines, results leading:

Ki (human OX1 receptor) [nM]	Ki (human OX2 receptor) [nM]	pKd (human OX1 receptor; OX1 receptor membranes, saturation isotherms)	pKd (human OX2 receptor; OX2 receptor membranes, saturation isotherms)	SMILES
–	–	8.82	9.12	COc1cc(F)c(CN2C(=O)N(c3cnc(OC)c(OC)c3)S(=O)(=O)c3ccccc32)c(F)c1 [[^3H]-4-(2,6-difluoro-4-methoxybenzyl)-2-(5,6-dimethoxypyridin-3-yl)-2H-1,2,4-benzothiadiazin-3(4H)-one 1,1-dioxide, reference compound]
1.58	> 15.8	–	–	COCc1cc(F)c(CN2C(=O)C(c3cnc(C)c(C(C)(F)F)c3)CCc3c(F)cccc32)c(F)c1 (single isomer, unassigned) [Example 40, 3-[5-(1,1-difluoroethyl)-6-methylpyridin-3-yl]-1-[2,6-difluoro-4-(methoxymethyl)benzyl]-6-fluoro-1,3,4,5-tetrahydro-2H-1-benzazepin-2-one]
